The record followed here is US20050203059A1, “Methods and compositions for treatment of ischemia” (priority 2002, published 2005).

By pEC50 is commonly meant the EC50 on a negative log10 scale, so that one unit is a factor of ten. Broadly, the AUC is the area under the concentration-time curve, a measure of exposure. By Cmax is commonly meant the peak of the concentration-time curve. As a reminder, the Tmax is the time at which the peak concentration occurs. As usually defined, the half-life is the time needed for the level to fall by half in the phase considered.

One series deals with GSK3. As to the kind of experiment: Cell-based glycogen synthase assay for GSK3 inhibitory activity (CHO-HIRC cells). The settings on record: read-out: EC50 (glycogen synthase activity stimulated to 50% of the maximal level), 20 minutes incubation. As to the method:
Likewise, the ability of GSK3 inhibitor compounds to potentiate insulin signaling by activating glycogen synthase can be readily ascertained using a cell-based glycogen synthase activity assay. This assay employs cells that respond to insulin stimulation by increasing glycogen synthase activity, such as the CHO-HIRC cell line, which overexpresses wild-type insulin receptor (˜100,000 binding sites/cell). […] The assay can be carried out by incubating serum-starved CHO-HIRC cells in the presence of various concentrations of compounds of the present invention in the medium, followed by cell lysis at the end of the incubation period. […] The concentration of candidate GSK3 inhibitor that increased glycogen synthase activity to half of its maximal level (i.e., the EC50) can be calculated by fitting a four parameter sigmoidal curve using routine curve fitting methods that are well known to those having ordinary skill in the art.
CHO-HIRC cells are maintained in 10 cm tissue culture plates in Ham's F12 medium/10% dialyzed fetal bovine serum. Cells from a confluent 10 cm plate are harvested and divided into the 6 wells of a 6-well tissue culture plate to a final volume of 2 ml of medium. The cells are left to grow at 37° C. for 24 hours. The cells are then washed three times in Ham's F12 medium containing no fetal bovine serum, and finally the cells are left for a further 24 hours at 37° C. in 2 ml of the serum-free medium.
At the end of this time, 20 μl of compound dissolved in DMSO is added to each well and incubated at 37° C. After 20 minutes the medium is removed and the cells are washed once in PBS at room temperature and then rapidly frozen in the plates in liquid nitrogen. […] Cells are scraped from the plates and frozen in Eppendorf tubes on dry ice. Lysates are then thawed and refrozen on dry ice.
After rethawing, lysates are spun at 14,000 g for 15 minutes. The supernatants are then removed and stored on ice. […] Reactions are incubated at 30° C. for 30 minutes and then spotted onto a 2 cm square 31ET chromatograph paper (Whatman).
Filters are added to 5 ml of liquid scintillant and counted in a liquid scintillation counter. The percentage of the total glycogen synthase that is active in any lysate is expressed as 100× (cpm minus glucose-6-phosphate)/(cpm plus glucose-6-phosphate). Such values are determined in duplicate for 5 different concentrations of compound and for DMSO alone, and the values are then plotted against the logarithm of the concentration. The concentration of compound which stimulates glycogen synthase activity to 50% of the maximal level is determined by fitting a sigmoidal curve to the plotted data. The maximal level is defined as that level to which glycogen synthase activity tends asymtotically as the concentration of test compound increases substantially beyond the EC50.

The next series relates to rat hippocampi cells. As to the kind of experiment: GSK3 inhibitor protection of rat hippocampi cells from glutamate induced damage (Trypan Blue count). It counts as cell-based. Details: Cells Surviving (%) Without Glutamate (control): concentration or dose not given beside the values. Conditions: rat hippocampal neurons, average of 1 to 4 replications. As to the method: Hippocampi were dissected from embryonic day 18-19 rats. The tissue was collected in Hibernate™ media (Gibco BRL) and minced into 1 mm pieces. The tissue was dissociated using the Papain Dissociation System (Worthington Biochemical Corporation). Following isolation the cells were suspended in serum-free media composed of Neurobasal™ (Gibco BRL), 2% B27 supplement (Gibco BRL), L-glutamine and antibiotics. Cells were plated in 12 well plates tissue culture dishes coated with poly-L-lysine at a concentration of 7.5×10^4 cells per well. Following 10-14 days at 37° C. in 5% CO2, the GSK3 inhibitor compounds set forth below were added. Four to eight hours following compound addition, the conditioned media was removed from the cells and the cultures were stored at 37° C. […] The cultures were then either exposed for 5-minutes at room temperature to 200 μM glutamic acid in the same HBSS, or not exposed to glutamic acid as a control. Following exposure, the cultures were rinsed three times with the buffer and then returned to their original conditioned media containing the GSK3 inhibitor compounds. Twenty to 24 hours following glutamic acid exposure, the cultures were rinsed in HBSS and exposed for 10 minutes to Trypan Blue. This dye is taken up by dead cells. The cultures were rinsed then fixed for 30 minutes in 4% paraformaldehyde. The number of live and dead (blue) large neurons are counted (at least 200 cells from each well) by phase contrast microscopy and photographed, and the percentage of surviving cells was determined. […] The results are shown in the following Table 2 as the average of 1 to 4 replications: […]

Series [1] can be described thus: Blood brain barrier penetration / plasma drug levels after intravenous dosing in CD rats. The settings on record: 10 mg/kg intravenously. It counts as in vivo, rat. The method, then: GSK3 inhibitor blood brain barrier penetration may generally be measured by administering a GSK3 inhibitor compound formulated in 15% captisol/20 mM sodium citrate to a final dose of 10 mg/kg intravenously through a jugular catheter into 250 g CD rats. At 150 minutes post administration brains from the rats were isolated and fast frozen. GSK3 inhibitor plasma levels in the isolated material were established using standard techniques.

The test system of series [2] is transient middle cerebral artery occlusion (MCAO) in SD rats. In words: Transient (90 min.) middle cerebral artery occlusion (MCAO) in SD rats. It counts as in vivo, rat. The settings on record: 90 min MCAO, 25 mg/kg intravenous bolus at occlusion, then 50 mg/kg subcutaneous repeatedly, histology at 3 days, FIG. 2. The text has this: 1. Transient focal cerebral ischemia: A rodent model of transient middle cerebral artery occlusion (MCA) occlusion was used to determine the effect of a representative GSK3 inhibitor compound of the invention, 6-[(2-{[6-(2,4-dichlorophenyl)-5-imidazolyl-2-pyridyl]amino}ethyl)amino]pyridine-3-carbonitrile (CT 99025) in the inhibition of ischemic damage due to stroke. Ischemia was induced using an occluding intraluminal suture model (M. A. Yenari et al., “Time-course and treatment response with SNX-111, an N-type calcium channel blocker, in a rodent model of focal cerebral ischemia using diffusion-weighted MRI,” Brain Res 739:3645 (1996)). Animals were anesthetized with 3% halothane (1-2% maintenance) via face mask. Depth of anesthesia was monitored every 15 minutes by checking toe pinch, and the maintenance halothane levels were adjusted accordingly. […] During the surgical procedure, the following parameters were monitored and maintained in the normal physiological range: mean arterial blood pressure (MABP, measured via a femoral artery catheter), respiratory rate, rectal temperature, heart rate, arterial blood gases, blood glucose, and hematocrit. […]
3. […] Regions without staining were delineated using a computer assisted image analysis program (MCID, St. Catherine's, Ottawa), and expressed as the percent injury of the ipsilateral hemisphere. […]

pEC50: −log10 of the molar value. Bounds are passed on as bounds.

For `N#Cc1ccc(NCCNc2ncc(-c3ccncc3)c(-c3ccc(Cl)cc3Cl)n2)nc1` [I], the negative logarithm of the EC50 (pEC50) in the series with GSK3 was 6.74. For the same compound, the “Cells Surviving (%) With Glutamate” value in the series on rat hippocampi cells (200 μM glutamic acid for 5 minutes, counted 20 to 24 hours later) was 56%. In addition, the “Cells Surviving (%) Without Glutamate (control)” value with rat hippocampi cells (not exposed to glutamic acid) amounted to 94%. The CL in series [1] is 114 [ml/min]/kg. For the same compound, in series [1] (brains isolated at 150 minutes post administration), the “Brain (at end of study) drug level” value is “<LOQ”. Also, in series [1] (rat, plasma, iv), the AUC was 145 ng·h/mL, the Cmax amounted to 1200 ng/mL, the time to peak (Tmax) was roughly 0 h and the half-life was 42 min. Also, the Vd in series [1] (rat, plasma, iv, read-out: Vss) was 6.8 L/kg. In series [1] (rat, plasma, iv, time 0 min), this compound gave a concentration at 0 min of less than 20 ng/mL. Besides, in series [1] (rat, plasma, iv, time 7 min), the concentration at 7 min was determined as 1190 ng/mL. In addition, the concentration at 20 min in series [1] (rat, plasma, iv, time 20 min) worked out at 1160 ng/mL. The concentration at 40 min in series [1] (rat, plasma, iv, time 40 min) was 614 ng/mL. In addition, in series [1] (rat, plasma, iv, time 70 min), the concentration at 70 min was 440 ng/mL. This compound yielded a concentration at 100 min in series [1] (rat, plasma, iv, time 100 min) of 358 ng/mL. This compound also had a concentration at 150 min in series [1] (rat, plasma, iv, time 150 min) of 106 ng/mL.
Take “6-[(2-{[6-(2,4-dichlorophenyl)-5-imidazolyl-2-pyridyl]amino}ethyl)amino]pyridine-3-carbonitrile [CT 99025]”: the “ischemic area (percent injury of the ipsilateral hemisphere) versus vehicle control” value in series [2] is on record as “substantially reduced”.
